Assay results taken from ChEMBL document CHEMBL5512674, “Novel Acyl Thiourea-Based Hydrophobic Tagging Degraders Exert Potent Anti-Influenza Activity through Two Distinct Endonuclease Polymerase Acidic-Targeted Degradation Pathways” (J Med Chem, 2024).
The source made the active and inactive calls. The rule behind the calls is not given here.

Assays:
Influenza A virus [1] = assay: Anti-influenza activity against Influenza A virus A/PR/8/34 (H1N1) infected in MDCK cells assessed as inhibition of viral growth at 1 uM incubated for 48 hrs by luciferase assay relative to control; format: functional
Enterovirus [2] = assay: Antiviral activity against Enterovirus CV-A16 infected in RD cells assessed as inhibition of viral replication incubated for 24 hrs by CCK-8 assay; format: functional, organism-based
[3] = Stability in human plasma assessed as compound remaining measured after 60 mins by LC-MS/MS analysis; format: ADME, cell-free; settings: read-out: Stability
[4] = molecular target: T1, von Hippel-Lindau disease tumor suppressor/Polymerase acidic protein (Influenza A virus (A/Puerto Rico/8/1934(H1N1))) (UniProt P03433+P40337); assay: PROTAC activity at Influenza A virus A/WSN/33(H1N1) flag tagged Polymerase acidic protein/VHL (unknown origin) expressed in HEK293T cells assessed as degradation of PA expression at 10 uM incubated for 24 to 48 hrs by Western blotting analysis; format: cell-based; settings: time 24-48 hrs
[5] = molecular target: T1, von Hippel-Lindau disease tumor suppressor/Polymerase acidic protein (Influenza A virus (A/Puerto Rico/8/1934(H1N1))); assay: PROTAC activity at Influenza A virus A/WSN/33(H1N1) flag tagged Polymerase acidic protein/VHL (unknown origin) expressed in HEK293T cells assessed as degradation of PA expression at 5 uM incubated for 24 hrs by Western blotting analysis; format: cell-based
enterovirus D68 = assay: Antiviral activity against enterovirus D68 infected in RD cells assessed as inhibition of viral replication incubated for 24 hrs by CCK-8 assay; format: functional, organism-based
[6] = Stability in human plasma assessed as compound remaining measured after 30 mins by LC-MS/MS analysis; format: ADME, cell-free; settings: read-out: Stability
[7] = Hepatic extraction ratio in human liver microsomes preincubated for 5 mins followed by NADPH addition and measured for 45 mins by LC-MS analysis; format: ADME, Microsome; settings: time 50 min, read-out: ERH
[8] = Hepatic extraction ratio in dog liver microsomes preincubated for 5 mins followed by NADPH addition and measured for 45 mins by LC-MS analysis; format: ADME, Canis lupus familiaris, Microsome; settings: time 50 min, read-out: ERH
[9] = molecular target: T1, von Hippel-Lindau disease tumor suppressor/Polymerase acidic protein (Influenza A virus (A/Puerto Rico/8/1934(H1N1))); assay: PROTAC activity at Influenza A virus A/WSN/33(H1N1) flag tagged Polymerase acidic protein/VHL (unknown origin) expressed in HEK293T cells assessed as degradation of PA expression at 10 uM incubated for 72 hrs by Western blotting analysis; format: cell-based
[10] = molecular target: T2, von Hippel-Lindau disease tumor suppressor/Polymerase basic protein 1 (Influenza A virus (strain A/Puerto Rico/8/1934 H1N1)) (UniProt P03431+P40337); assay: PROTAC activity at Influenza A virus A/WSN/33(H1N1) flag tagged Polymerase basic protein 1/VHL (unknown origin) expressed in HEK293T cells assessed as degradation of PB1 expression at 0.1 to 10 uM incubated for 24 hrs by Western blotting analysis; format: cell-based; settings: dose 0.1-10 µM
T2 sequence (P03431 whole entry, looked up): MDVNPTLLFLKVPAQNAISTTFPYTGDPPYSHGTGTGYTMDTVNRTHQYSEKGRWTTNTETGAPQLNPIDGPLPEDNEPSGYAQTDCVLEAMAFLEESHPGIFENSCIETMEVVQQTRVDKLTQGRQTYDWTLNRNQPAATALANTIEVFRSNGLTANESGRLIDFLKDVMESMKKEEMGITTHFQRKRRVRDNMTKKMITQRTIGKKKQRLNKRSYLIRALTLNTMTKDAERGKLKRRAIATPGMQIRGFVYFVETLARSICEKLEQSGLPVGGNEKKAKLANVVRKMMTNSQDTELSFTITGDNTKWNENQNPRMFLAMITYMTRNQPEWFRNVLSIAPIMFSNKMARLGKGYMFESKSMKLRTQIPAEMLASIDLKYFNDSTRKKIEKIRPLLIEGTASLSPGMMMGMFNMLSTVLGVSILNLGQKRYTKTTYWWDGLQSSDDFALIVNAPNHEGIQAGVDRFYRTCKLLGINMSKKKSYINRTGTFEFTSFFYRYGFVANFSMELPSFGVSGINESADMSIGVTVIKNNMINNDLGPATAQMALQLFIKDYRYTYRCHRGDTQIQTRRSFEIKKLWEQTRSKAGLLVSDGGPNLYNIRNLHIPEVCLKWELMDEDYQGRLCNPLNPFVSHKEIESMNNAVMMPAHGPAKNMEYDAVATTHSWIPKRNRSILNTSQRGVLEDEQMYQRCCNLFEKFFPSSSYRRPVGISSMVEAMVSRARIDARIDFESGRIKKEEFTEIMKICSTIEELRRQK
T2 sequence (P40337 whole entry, looked up): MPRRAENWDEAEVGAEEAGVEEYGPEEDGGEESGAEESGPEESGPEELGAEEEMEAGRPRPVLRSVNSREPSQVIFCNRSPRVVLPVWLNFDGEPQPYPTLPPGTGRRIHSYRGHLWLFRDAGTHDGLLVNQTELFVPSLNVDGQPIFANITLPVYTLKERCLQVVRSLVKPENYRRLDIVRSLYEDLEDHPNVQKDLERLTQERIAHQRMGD

[11] = Selectivity index, ratio of CC50 for cytotoxicity against human HEK293T cells to EC50 for anti-influenza activity against Influenza A virus A/WSN/33(H1N1) infected in HEK293T cells assessed as reduction in virus-induced cytopathic effect; format: toxicity, cell-based; settings: read-out: Ratio CC50/EC50
[12] = molecular target: von Hippel-Lindau disease tumor suppressor/Polymerase basic protein 2 (Influenza A virus (strain A/Puerto Rico/8/1934 H1N1)) (UniProt P40337+P03428); assay: PROTAC activity at Influenza A virus A/WSN/33(H1N1) flag tagged Polymerase basic protein 2/VHL (unknown origin) expressed in HEK293T cells assessed as degradation of PB2 expression at 10 ug/ml incubated for 24 hrs by Western blotting analysis; format: cell-based; settings: dose 10.0 µg/ml
Chain of von Hippel-Lindau disease tumor suppressor/Polymerase basic protein 2 (Influenza A virus (strain A/Puerto Rico/8/1934 H1N1)) (P03428 whole entry, looked up): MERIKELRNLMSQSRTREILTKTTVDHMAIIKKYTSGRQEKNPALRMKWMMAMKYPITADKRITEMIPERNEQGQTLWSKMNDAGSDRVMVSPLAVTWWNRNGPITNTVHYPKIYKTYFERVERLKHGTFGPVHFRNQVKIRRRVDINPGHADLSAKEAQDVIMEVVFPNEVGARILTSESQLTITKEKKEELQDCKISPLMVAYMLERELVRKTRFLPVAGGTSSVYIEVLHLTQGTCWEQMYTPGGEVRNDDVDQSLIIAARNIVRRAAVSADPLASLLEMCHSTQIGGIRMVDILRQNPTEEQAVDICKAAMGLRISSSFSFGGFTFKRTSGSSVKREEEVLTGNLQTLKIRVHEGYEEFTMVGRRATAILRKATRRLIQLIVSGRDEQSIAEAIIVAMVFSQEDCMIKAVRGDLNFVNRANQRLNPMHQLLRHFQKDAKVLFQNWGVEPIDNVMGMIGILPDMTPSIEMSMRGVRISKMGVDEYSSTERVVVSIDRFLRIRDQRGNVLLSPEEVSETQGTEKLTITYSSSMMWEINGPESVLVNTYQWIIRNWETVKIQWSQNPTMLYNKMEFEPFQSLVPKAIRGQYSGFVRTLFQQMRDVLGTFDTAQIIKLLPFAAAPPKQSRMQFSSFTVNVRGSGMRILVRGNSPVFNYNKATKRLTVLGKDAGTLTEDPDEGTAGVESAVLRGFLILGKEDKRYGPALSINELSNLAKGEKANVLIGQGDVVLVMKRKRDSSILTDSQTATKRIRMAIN
Chain of von Hippel-Lindau disease tumor suppressor/Polymerase basic protein 2 (Influenza A virus (strain A/Puerto Rico/8/1934 H1N1)) (P40337 whole entry, looked up): as the sequence (P40337 whole entry, looked up) above

Influenza A virus [13] = assay: Anti-influenza activity against Influenza A virus A/PR/8/34 (H1N1) infected in MDCK cells assessed as inhibition of viral growth at 0.8 nM incubated for 48 hrs by luciferase assay relative to control; format: functional
Influenza A virus [14] = assay: Anti-influenza activity against Influenza A virus H3N2 infected in HEK293T cells assessed as reduction in virus-induced cytopathic effect incubated for 48 hrs by CCK-8 assay; format: functional, organism-based; settings: H3N2, HEK-293T
Influenza A virus [15] = assay: Anti-influenza activity against Influenza A virus A/WSN/33(H1N1) infected in HEK293T cells assessed as reduction in virus-induced cytopathic effect incubated for 48 hrs by CCK-8 assay; format: functional, organism-based; settings: HEK-293T
[16] = Hepatic clearance in mouse liver microsomes preincubated for 5 mins followed by NADPH addition and measured for 45 mins by LC-MS analysis; format: ADME, Microsome; settings: time 50 min
[17] = molecular target: von Hippel-Lindau disease tumor suppressor/Polymerase acidic protein (Influenza A virus (A/Puerto Rico/8/1934(H1N1)), UniProt P03433+P40337); assay: PROTAC activity at Influenza A virus A/WSN/33(H1N1) flag tagged Polymerase acidic protein/VHL (unknown origin) expressed in HEK293T cells assessed as degradation of PA expression incubated for 24 hrs by Western blotting analysis; format: cell-based
Enterovirus [18] = assay: Antiviral activity against Enterovirus CV-B1 infected in RD cells assessed as inhibition of viral replication incubated for 24 hrs by CCK-8 assay; format: functional, organism-based
[19] = molecular target: Voltage-gated inwardly rectifying potassium channel KCNH2 (Homo sapiens, UniProt Q12809); assay: Inhibition of hERG; format: toxicity
Chain of Voltage-gated inwardly rectifying potassium channel KCNH2 (Q12809 whole entry): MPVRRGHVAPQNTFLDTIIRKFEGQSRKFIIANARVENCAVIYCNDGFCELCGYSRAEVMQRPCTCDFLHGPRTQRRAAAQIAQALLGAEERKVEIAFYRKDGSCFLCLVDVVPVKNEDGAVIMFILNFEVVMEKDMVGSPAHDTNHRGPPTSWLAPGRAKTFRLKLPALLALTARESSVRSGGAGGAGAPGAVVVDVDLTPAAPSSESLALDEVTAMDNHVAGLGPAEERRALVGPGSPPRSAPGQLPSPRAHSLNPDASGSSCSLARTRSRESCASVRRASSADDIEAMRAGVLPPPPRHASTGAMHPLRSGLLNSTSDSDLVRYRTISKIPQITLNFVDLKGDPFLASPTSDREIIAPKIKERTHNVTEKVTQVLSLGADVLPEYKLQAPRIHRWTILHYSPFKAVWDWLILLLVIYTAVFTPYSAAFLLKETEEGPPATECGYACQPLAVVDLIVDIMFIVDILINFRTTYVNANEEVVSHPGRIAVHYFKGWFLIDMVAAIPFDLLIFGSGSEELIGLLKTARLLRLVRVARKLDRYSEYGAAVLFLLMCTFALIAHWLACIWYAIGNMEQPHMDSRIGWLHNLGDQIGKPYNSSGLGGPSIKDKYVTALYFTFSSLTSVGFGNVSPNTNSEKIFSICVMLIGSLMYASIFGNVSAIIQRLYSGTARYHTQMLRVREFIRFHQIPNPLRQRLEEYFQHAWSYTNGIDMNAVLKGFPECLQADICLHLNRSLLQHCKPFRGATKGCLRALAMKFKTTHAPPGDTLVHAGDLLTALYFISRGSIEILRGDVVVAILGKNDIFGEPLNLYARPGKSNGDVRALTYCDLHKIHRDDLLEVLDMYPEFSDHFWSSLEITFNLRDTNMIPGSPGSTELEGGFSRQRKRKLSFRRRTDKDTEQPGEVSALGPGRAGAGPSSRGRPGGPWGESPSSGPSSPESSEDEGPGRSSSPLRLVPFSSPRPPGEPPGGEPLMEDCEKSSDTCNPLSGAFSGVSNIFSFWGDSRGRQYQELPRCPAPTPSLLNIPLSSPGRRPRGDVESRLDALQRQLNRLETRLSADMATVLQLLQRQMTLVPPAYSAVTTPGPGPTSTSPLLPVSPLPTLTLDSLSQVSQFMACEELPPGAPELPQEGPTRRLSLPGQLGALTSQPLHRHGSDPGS

[20] = molecular target: T2, von Hippel-Lindau disease tumor suppressor/Polymerase basic protein 1 (Influenza A virus (strain A/Puerto Rico/8/1934 H1N1)); assay: PROTAC activity at Influenza A virus A/WSN/33(H1N1) flag tagged Polymerase basic protein 1/VHL (unknown origin) expressed in HEK293T cells assessed as degradation of PB1 expression at 1 ug/ml incubated for 24 hrs by Western blotting analysis; format: cell-based; settings: dose 1.0 µg/ml
[21] = Stability in human plasma assessed as compound remaining by LC-MS/MS analysis; format: ADME, cell-free
[22] = molecular target: T1, von Hippel-Lindau disease tumor suppressor/Polymerase acidic protein (Influenza A virus (A/Puerto Rico/8/1934(H1N1))); assay: PROTAC activity at Influenza A virus A/WSN/33(H1N1) flag tagged Polymerase acidic protein/VHL (unknown origin) expressed in HEK293T cells assessed as degradation of PA expression at 10 uM by Western blotting analysis; format: cell-based; settings: TDE = time-dependent effect
[23] = Half life in mouse liver microsomes preincubated for 5 mins followed by NADPH addition and measured for 45 mins by LC-MS analysis; format: ADME, Microsome; settings: time 50 min
[24] = molecular target: T1, von Hippel-Lindau disease tumor suppressor/Polymerase acidic protein (Influenza A virus (A/Puerto Rico/8/1934(H1N1))); assay: PROTAC activity at Influenza A virus A/WSN/33(H1N1) flag tagged Polymerase acidic protein/VHL (unknown origin) expressed in HEK293T cells assessed as degradation of PA expression at 10 uM incubated for 8 hrs by Western blotting analysis; format: cell-based

With `CC(C)(C)OC(=O)NCCCC[C@H](NC(=O)OC(C)(C)C)C(=O)NCCCCCCCC(=O)Nc1ccc(NC(=S)NC(=O)c2ccc(C(C)(C)C)cc2)cc1` the inhibition at 1 µM (Influenza A virus [1]) was 96%, the Activity (Enterovirus [2]) was “Active” and the remaining at 1 h [3] was 96.9%. For the same compound, the Activity [4] was “Active”, the Activity [5] was “Active” and the Activity (enterovirus D68) was “Active”. For the same compound, the remaining at 0.5 h [6] was 108%, the hepatic extraction ratio at 0.75 h [7] was 0.588 and the hepatic extraction ratio at 0.75 h [8] was 0.851. The Activity [9] was “Active”, the Activity [10] was “inactive” and the selectivity ratio [11] was over 6670. For the same compound, the Activity [12] was “inactive”, the inhibition at 0.0008 µM (Influenza A virus [13]) was 82% and the EC50 (Influenza A virus [14]) was 36 nM. It also gave an EC50 (Influenza A virus [15]) of 15 nM, a CLhep predicted [16] of 58.8 mL/min/kg and a DC50 [17] of 60 nM. For the same compound, the Activity (Enterovirus [18]) was “Active”, the “inhibition (INH)” value [19] was “Not Active” and the Activity [20] was “inactive”. For the same compound, the Stability [21] was 100%, the Activity [22] was “Tde” and the half-life [23] was 32.1 min. For the same compound, the Activity [24] was “Active”.
